Measured values: US20070128217A1 (priority 2003, published 2007)

What was measured:
[1] = system: control sera (pooled serum of ten healthy LUMC hospital workers; commercial negative donor pooled serum from the Dutch bloodbank); assay type: binding, human; set-up: Binding of Control serum LUMC to linear peptides / Binding of Control serum Blood-bank to linear peptides / Binding of Control serum LUMC to looped peptides / Binding of Control Serum Blood-Bank to Looped peptides / Binding of Control serum LUMC to linear peptides of the protein M of SARS-CoV Urbani / Binding of Control serum Blood-bank to linear peptides of the protein M of SARS-CoV Urbani / Binding of Control serum LUMC to looped peptides of the protein M of SARS-CoV Urbani / Binding of Control Serum Blood-Bank to Looped peptides of the protein M of SARS-CoV Urbani: unit not given here
[2] = system: rabbit serum obtained by immunizing a rabbit with the SARS-CoV strain Frankfurt 1; assay type: binding; set-up: Binding of a rabbit serum to linear peptides / Binding of a rabbit serum to looped peptides / Rabbit serum linear peptides / Rabbit serum looped peptides / Binding of a rabbit serum to linear peptides of protein N of SARS-CoV Urbani (Rabbit serum linear peptides) / Binding of a rabbit serum to looped/cyclic peptides of protein N of SARS-CoV Urbani (Rabbit serum looped peptides): unit not given here
[3] = system: antibodies in sera from SARS patients (sera 1a, 1b, 2, 6, 37, 62, London, SARS-yellow, SARS-green); assay type: binding, human; set-up: Binding of serum 6 to linear peptides of protein X1 of SARS-CoV Urbani / Binding of serum 37 to linear peptides of protein X1 of SARS-CoV Urbani / Binding of serum 6 to looped/cyclic peptide (PEPSCAN-ELISA) / Binding of serum 37 to looped/cyclic peptide (PEPSCAN-ELISA) / Binding of serum 37 to looped/cyclic peptides of protein X1 of SARS-CoV Urbani / Binding of serum 6 to linear peptides of protein X2 / Binding of serum 37 to linear peptides of protein X2 / Binding of serum 37 to looped/cyclic peptides of protein X2 of SARS-CoV Urbani / Binding of serum 6 to linear peptides of protein M of SARS-CoV Urbani / Binding of serum 37 to linear peptides of protein M of SARS-CoV Urbani / Binding of serum 6 to looped/cyclic peptides of protein M of SARS-CoV Urbani / Binding of serum 37 to looped/cyclic peptides of protein M of SARS-CoV Urbani / Binding of serum 6 to linear peptides of protein X3 of SARS-CoV Urbani / Binding of serum 37 to linear peptides of protein X3 of SARS-CoV Urbani / Binding of serum 37 to looped/cyclic peptides of protein X3 of SARS-CoV Urbani / Binding of serum 6 to linear peptides of protein X4 of SARS-CoV Urbani / Binding of serum 37 to linear peptides of protein X4 of SARS-CoV Urbani / Binding of serum 37 to looped/cyclic peptides of protein X4 of SARS-CoV Urbani / Binding of serum 6 to linear peptides of protein X5 of SARS-CoV Urbani / Binding of serum 37 to linear peptides of protein X5 of SARS-CoV Urbani / Binding of serum 37 to looped/cyclic peptides of protein X5 of SARS-CoV Urbani / Binding of serum 6 to linear peptides of protein N of SARS-CoV Urbani / Binding of serum 37 to linear peptides of protein N of SARS-CoV Urbani / Binding of serum 6 to linear peptide (PEPSCAN-ELISA) / Binding of serum 1a to looped/cyclic peptides of protein N of SARS-CoV Urbani / Binding of serum 1b to looped/cyclic peptides of protein N of SARS-CoV Urbani / Binding of serum 2 to looped/cyclic peptides of protein N of SARS-CoV Urbani / Binding of serum 6 to looped/cyclic peptides of protein N of SARS-CoV Urbani / Binding of serum 37 to looped/cyclic peptides of protein N of SARS-CoV Urbani / Binding of serum 62 to looped/cyclic peptides of protein N of SARS-CoV Urbani / Binding of serum London to looped/cyclic peptides of protein N of SARS-CoV Urbani / Binding of serum SARS-green to looped/cyclic peptides of protein N of SARS-CoV Urbani: unit not given here

PETNILLNVPLRGTI
0.0: Binding of serum SARS-green to looped/cyclic peptides of protein M of SARS-CoV Urbani [3]
0.1: Rabbit serum linear peptides [2]
0.7: Binding of Control serum LUMC to looped peptides of the protein M of SARS-CoV Urbani [1] | Binding of serum 2 to linear peptides of protein M of SARS-CoV Urbani [3] | Binding of serum 2 to looped/cyclic peptides of protein M of SARS-CoV Urbani [3]
0.5: Binding of serum 62 to linear peptides of protein M of SARS-CoV Urbani [3] | Binding of serum SARS-green to linear peptides of protein M of SARS-CoV Urbani [3]
0.4: Binding of serum 6 to linear peptides of protein M of SARS-CoV Urbani [3] | Binding of serum London to linear peptides of protein M of SARS-CoV Urbani [3]
0.3: Rabbit serum looped peptides [2] | Binding of serum London to looped/cyclic peptides of protein M of SARS-CoV Urbani [3] | Binding of serum SARS-yellow to linear peptides of protein M of SARS-CoV Urbani [3]
0.6: Binding of serum 1a to looped/cyclic peptides of protein M of SARS-CoV Urbani [3] | Binding of serum 1b to linear peptides of protein M of SARS-CoV Urbani [3] | Binding of serum 1b to looped/cyclic peptides of protein M of SARS-CoV Urbani [3] | Binding of serum SARS-yellow to looped/cyclic peptides of protein M of SARS-CoV Urbani [3]
0.8: Binding of Control Serum Blood-Bank to Looped peptides of the protein M of SARS-CoV Urbani [1] | Binding of Control serum Blood-bank to linear peptides of the protein M of SARS-CoV Urbani [1] | Binding of Control serum LUMC to linear peptides of the protein M of SARS-CoV Urbani [1] | Binding of serum 1a to linear peptides of protein M of SARS-CoV Urbani [3] | Binding of serum 37 to looped/cyclic peptides of protein M of SARS-CoV Urbani [3] | Binding of serum 62 to looped/cyclic peptides of protein M of SARS-CoV Urbani [3]
0.9: Binding of serum 6 to looped/cyclic peptides of protein M of SARS-CoV Urbani [3] | Binding of serum 37 to linear peptides of protein M of SARS-CoV Urbani [3]

FLTLIVFTSCELYHY
0.7: Binding of Control serum LUMC to linear peptides [1] | Binding of Control serum LUMC to looped peptides [1] | Binding of serum 1a to linear peptides of protein X4 of SARS-CoV Urbani [3] | Binding of serum 37 to linear peptides of protein X4 of SARS-CoV Urbani [3] | Binding of serum 37 to looped/cyclic peptides of protein X4 of SARS-CoV Urbani [3] | Binding of serum 62 to linear peptides of protein X4 of SARS-CoV Urbani [3] | Binding of serum 62 to looped/cyclic peptides of protein X4 of SARS-CoV Urbani [3] | Binding of serum SARS-yellow to looped/cyclic peptides of protein X4 of SARS-CoV Urbani [3]
0.3: Binding of serum London to looped/cyclic peptides of protein X4 of SARS-CoV Urbani [3] | Binding of serum SARS-green to looped/cyclic peptides of protein X4 of SARS-CoV Urbani [3]
1.7: Binding of serum 1b to looped/cyclic peptides of protein X4 of SARS-CoV Urbani [3]
0.8: Binding of serum 1a to looped/cyclic peptides of protein X4 of SARS-CoV Urbani [3] | Binding of serum 2 to looped/cyclic peptides of protein X4 of SARS-CoV Urbani [3]
0.4: Rabbit serum linear peptides [2]
0.5: Rabbit serum looped peptides [2] | Binding of serum 2 to linear peptides of protein X4 of SARS-CoV Urbani [3] | Binding of serum 6 to linear peptides of protein X4 of SARS-CoV Urbani [3] | Binding of serum 6 to looped/cyclic peptides of protein X4 of SARS-CoV Urbani [3]
0.6: Binding of Control Serum Blood-Bank to Looped peptides [1] | Binding of Control serum Blood-bank to linear peptides [1] | Binding of serum 1b to linear peptides of protein X4 of SARS-CoV Urbani [3] | Binding of serum London to linear peptides of protein X4 of SARS-CoV Urbani [3] | Binding of serum SARS-green to linear peptides of protein X4 of SARS-CoV Urbani [3] | Binding of serum SARS-yellow to linear peptides of protein X4 of SARS-CoV Urbani [3]
